In brackets after ≈: the same amount, converted by molar mass.

In general, IC50 refers to the concentration that inhibits the measured activity by half. What is called clearance is a measure of how efficiently the substance is removed, as volume per time. One may read the chromatographic logD as a lipophilicity value derived from retention on a column. One may read the Cmax as the highest concentration seen after dosing. For orientation: solubility means the concentration that dissolves in the medium under given conditions. As usually defined, the ED50 is the dose at which the effect has come halfway, by size or by number of responders.

Series [1] is described as follows: Unbound Cmax in female C57BL/6J mouse lung at 30 mg/kg, po measured after 24 hrs by UPLC-MS/MS analysis. Format: ADME, organism-based. Particulars: in vivo.
The target in series [2] is ATP-binding cassette sub-family C member 2 (Homo sapiens, UniProt Q92887). Description: Inhibition of MRP2 (unknown origin) in presence of ATP by membrane vesicular transport assay. Format: cell membranes, Membrane vesicle.
Chain of ATP-binding cassette sub-family C member 2 (Q92887 whole entry): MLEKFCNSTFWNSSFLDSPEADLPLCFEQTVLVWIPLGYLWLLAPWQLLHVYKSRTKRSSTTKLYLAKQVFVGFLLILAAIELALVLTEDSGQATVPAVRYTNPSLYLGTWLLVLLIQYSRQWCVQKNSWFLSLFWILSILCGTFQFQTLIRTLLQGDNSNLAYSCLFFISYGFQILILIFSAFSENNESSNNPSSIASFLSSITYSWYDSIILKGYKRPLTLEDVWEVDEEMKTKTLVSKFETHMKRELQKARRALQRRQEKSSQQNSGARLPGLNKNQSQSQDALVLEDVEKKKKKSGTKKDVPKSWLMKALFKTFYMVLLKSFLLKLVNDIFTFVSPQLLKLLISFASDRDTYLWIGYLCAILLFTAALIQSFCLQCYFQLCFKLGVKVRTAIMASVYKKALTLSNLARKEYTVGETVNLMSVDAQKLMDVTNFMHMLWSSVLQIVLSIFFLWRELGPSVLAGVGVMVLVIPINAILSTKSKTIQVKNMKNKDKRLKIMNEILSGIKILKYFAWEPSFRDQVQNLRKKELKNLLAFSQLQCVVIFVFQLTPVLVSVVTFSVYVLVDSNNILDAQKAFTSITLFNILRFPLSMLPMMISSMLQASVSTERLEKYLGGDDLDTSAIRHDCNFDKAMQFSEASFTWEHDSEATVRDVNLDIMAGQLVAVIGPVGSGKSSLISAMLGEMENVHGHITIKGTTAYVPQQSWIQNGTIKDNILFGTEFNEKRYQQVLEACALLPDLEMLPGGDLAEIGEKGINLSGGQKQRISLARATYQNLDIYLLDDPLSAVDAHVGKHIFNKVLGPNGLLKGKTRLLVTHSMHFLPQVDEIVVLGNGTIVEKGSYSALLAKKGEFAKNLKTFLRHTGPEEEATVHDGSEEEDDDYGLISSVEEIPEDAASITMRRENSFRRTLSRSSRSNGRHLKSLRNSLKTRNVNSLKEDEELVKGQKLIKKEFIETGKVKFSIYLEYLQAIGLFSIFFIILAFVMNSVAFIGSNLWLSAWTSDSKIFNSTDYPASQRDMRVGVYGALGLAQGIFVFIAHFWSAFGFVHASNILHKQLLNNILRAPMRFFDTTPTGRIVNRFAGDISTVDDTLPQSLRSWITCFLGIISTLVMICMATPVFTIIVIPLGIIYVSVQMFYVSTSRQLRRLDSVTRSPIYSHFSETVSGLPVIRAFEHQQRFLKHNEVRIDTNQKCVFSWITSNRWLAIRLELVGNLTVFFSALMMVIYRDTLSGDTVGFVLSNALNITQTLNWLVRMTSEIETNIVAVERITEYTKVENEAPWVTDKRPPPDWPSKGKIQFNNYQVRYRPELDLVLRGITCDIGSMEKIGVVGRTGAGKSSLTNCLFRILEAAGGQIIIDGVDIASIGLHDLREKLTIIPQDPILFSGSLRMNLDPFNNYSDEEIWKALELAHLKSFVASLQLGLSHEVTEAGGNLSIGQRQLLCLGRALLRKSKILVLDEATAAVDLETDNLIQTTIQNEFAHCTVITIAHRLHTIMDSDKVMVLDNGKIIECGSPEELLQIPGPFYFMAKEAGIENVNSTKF
A short description of series [3]: Total AUClast in female C57BL/6J mouse lung at 30 mg/kg, po measured after 24 hrs by UPLC-MS/MS analysis. Particulars: in vivo. Format: ADME, organism-based.
The nature of series [4]: Clearance in female C57BL/6J mouse at 2 mg/kg, iv measured after 24 hrs by UPLC-MS/MS analysis. Particulars: in vivo. Format: ADME, organism-based.
A short description of series [5]: Toxicity in cynomolgus monkey assessed as abnormal vocalization at 210 mg/kg/day, po bid measured after 4 days. It counts as organism-based, Macaca fascicularis. The settings on record: in vivo, 96 h, time 4 day.
Series [6] is described as follows: Toxicity in cynomolgus monkey assessed as fasciculation at 210 mg/kg/day, po bid measured after 4 days. The settings on record: in vivo, 96 h, time 4 day. It counts as organism-based, Macaca fascicularis.
Series [7] can be described thus: Volume of distribution at steady state in female C57BL/6J mouse at 2 mg/kg, iv measured after 24 hrs by UPLC-MS/MS analysis. Format: ADME, organism-based. Particulars: in vivo, read-out: Vdss.
The nature of series [8]: Lipophilicity, logD of compound at pH 7.4 by chromatographic hydrophobicity index method. It counts as physicochemical. Particulars: buffer.
The nature of series [9]: Toxicity in cynomolgus monkey assessed as piloerection at 210 mg/kg/day, po bid measured after 4 days. It counts as organism-based, Macaca fascicularis. Particulars: in vivo, 96 h, time 4 day.
Series [10] is described as follows: Toxicity in cynomolgus monkey assessed as partially closed eyelids at 210 mg/kg/day, po bid measured after 4 days. It counts as organism-based, Macaca fascicularis. The settings on record: in vivo, 96 h, time 4 day.
Series [11] has as its target T1, Solute carrier organic anion transporter family member 1B3 (Homo sapiens, UniProt Q9NPD5).
T1 sequence (Q9NPD5 whole entry): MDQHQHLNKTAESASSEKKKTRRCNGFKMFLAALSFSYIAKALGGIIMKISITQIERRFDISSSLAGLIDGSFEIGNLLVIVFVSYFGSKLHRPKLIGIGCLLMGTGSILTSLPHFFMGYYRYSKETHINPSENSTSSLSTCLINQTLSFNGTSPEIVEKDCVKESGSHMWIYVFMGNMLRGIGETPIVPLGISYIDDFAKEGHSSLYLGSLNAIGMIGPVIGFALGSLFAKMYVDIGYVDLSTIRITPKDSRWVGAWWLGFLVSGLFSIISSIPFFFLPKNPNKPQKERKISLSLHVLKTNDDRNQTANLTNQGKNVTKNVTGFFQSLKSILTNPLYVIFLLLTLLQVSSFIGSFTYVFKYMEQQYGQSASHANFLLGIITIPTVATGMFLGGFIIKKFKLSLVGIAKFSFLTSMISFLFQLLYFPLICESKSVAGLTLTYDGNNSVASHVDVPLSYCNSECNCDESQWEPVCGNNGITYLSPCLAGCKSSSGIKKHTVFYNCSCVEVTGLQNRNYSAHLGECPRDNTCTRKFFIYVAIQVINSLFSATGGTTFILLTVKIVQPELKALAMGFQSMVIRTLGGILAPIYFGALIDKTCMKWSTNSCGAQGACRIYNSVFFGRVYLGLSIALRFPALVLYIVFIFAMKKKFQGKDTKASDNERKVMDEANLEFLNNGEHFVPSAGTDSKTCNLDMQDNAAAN
Description: Inhibition of human OATP1B3 in HEK293 cells. Format: cell-based.

Series [12] concerns the target T2, Solute carrier organic anion transporter family member 1B1 (Homo sapiens, UniProt Q9Y6L6).
T2 sequence (Q9Y6L6 whole entry): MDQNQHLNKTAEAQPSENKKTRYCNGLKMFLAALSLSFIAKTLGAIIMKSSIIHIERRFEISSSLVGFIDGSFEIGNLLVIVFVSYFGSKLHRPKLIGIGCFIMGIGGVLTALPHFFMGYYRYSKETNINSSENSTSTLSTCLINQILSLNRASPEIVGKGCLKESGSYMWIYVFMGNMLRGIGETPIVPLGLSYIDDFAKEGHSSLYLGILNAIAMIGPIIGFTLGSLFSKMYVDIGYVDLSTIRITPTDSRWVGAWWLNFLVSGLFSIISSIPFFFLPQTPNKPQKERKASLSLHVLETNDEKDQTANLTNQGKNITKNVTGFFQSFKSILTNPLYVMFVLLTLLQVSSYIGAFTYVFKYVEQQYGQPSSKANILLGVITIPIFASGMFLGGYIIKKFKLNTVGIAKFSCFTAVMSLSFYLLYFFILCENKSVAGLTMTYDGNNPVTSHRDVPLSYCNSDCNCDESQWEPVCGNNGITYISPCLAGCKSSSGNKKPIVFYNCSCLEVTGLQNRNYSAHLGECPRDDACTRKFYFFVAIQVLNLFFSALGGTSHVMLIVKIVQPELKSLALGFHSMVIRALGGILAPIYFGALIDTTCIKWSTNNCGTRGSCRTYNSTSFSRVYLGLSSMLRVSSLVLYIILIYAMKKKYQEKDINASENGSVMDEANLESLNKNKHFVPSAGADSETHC
The experiment in a line: Inhibition of human OATP1B1 in HEK293 cells. Format: cell-based.

Series [13] is described as follows: Total Cmax in female C57BL/6J mouse lung at 30 mg/kg, po measured after 24 hrs by UPLC-MS/MS analysis. Format: ADME, organism-based.
Series [14] is described as follows: Total Cmax in female C57BL/6J mouse plasma at 30 mg/kg, po measured after 24 hrs by UPLC-MS/MS analysis. It counts as ADME, organism-based.
Series [15] can be described thus: Toxicity in cynomolgus monkey assessed as drug tolerance at 12.5 to 100 mg/kg/day, po bid measured after 4 days. Format: organism-based, Macaca fascicularis. Particulars: in vivo, 96 h, dose 12.5-100 mg/kg/day, time 4 day.
Series [16] is described as follows: Aqueous solubility of the compound at pH 7.4. It counts as physicochemical. Particulars: buffer.
The next series concerns Mus musculus. The experiment in a line: Inhibition of LPA-stimulated histamine release in male CD1 mouse plasma assessed as effective dose administered as po dose pretreated for 30 mins followed by LPA addition measured after 2 mins by enzyme immunoassay. It counts as functional. Particulars: 32 min.
Series [17] can be described thus: Unbound AUClast in female C57BL/6J mouse plasma at 30 mg/kg, po measured after 24 hrs by UPLC-MS/MS analysis. It counts as ADME, organism-based. Particulars: in vivo.
A short description of series [18]: Metabolic stability in human liver microsomes assessed as intrinsic clearance measured per mg of protein at 0.5 uM measured upto 45 mins in presence of NADPH regenerating system by HPLC-MS/MS analysis. Format: ADME, Microsome. Particulars: read-out: CLH. (In general: Liver microsomes are vesicles of endoplasmic reticulum, rich in cytochrome P450 enzymes.)
Series [19] can be described thus: Tlast in female C57BL/6J mouse lung at 30 mg/kg, po measured after 24 hrs by UPLC-MS/MS analysis. Format: ADME, organism-based. Particulars: in vivo.

In series [1], `Cc1nc(-c2onc(C)c2NC(=O)O[C@H](C)c2ccccc2Cl)ccc1NC(=O)[C@H]1CCCC[C@@H]1C(=O)O` had a fCmax of 1553 ng/mL. Further, the values for the 50% inhibitory concentration (IC50) in series [2], in series [11] and in series [12] were greater than 200 µM, 7.94 µM and 5.01 µM, respectively. This molecule also had an AUClast in [3] of 123000 h/ng/mL. This molecule showed a clearance in [4] of 1.73 mL/min/kg. Moreover, the Activity result is given as “Toxic” in [5]; “Toxic” in series [6]; “Toxic” in series [9]; “Toxic” in series [10]; “Non-toxic” in [15]. Besides, the Vd in [7] stood at 0.16 L/kg. In addition, the chromatographic logD in series [8] was 1.76. Further, the Cmax in [13] amounted to 41.3 µg/mL; in [14] it was 99.4 µg/mL. In [16], this molecule came in with a solubility of 505 µM (≈ 273 µg/mL). Besides, in the series on Mus musculus, the 50% effective dose (ED50) came out at 0.04 mg/kg. This molecule also displayed a fAUClast in series [17] of 3675 h/ng/mL. Besides, the microsomal CLint at 0.5 µM in series [18] was found to be 7 µL/min/mg. In addition, the Tlast in [19] came to 24 h.

Values taken from ChEMBL document CHEMBL6153155, “Novel Cyclohexyl Amido Acid Antagonists of Lysophosphatidic Acid Type 1 Receptor for the Treatment of Pulmonary Fibrosis” (ACS Med Chem Lett, 2025).
